Results: patent publication US20230331652A1, “TRANS-CYCLOOCTENES WITH HIGH REACTIVITY AND FAVORABLE PHYSIOCHEMICAL PROPERTIES” (University of Delaware, priority 2020, published 2023)

Legend:
[1] = tested on: cellular protein sulfenic acids; conditions: generally; not under the conditions of intracellular bioorthogonal chemistry (generally ≤10 μM); cited from earlier work
[2] = Stopped-flow kinetics of the Diels-Alder reaction with tetrazine 20; assay type: physicochemical; conditions: 4a, 10 μM tetrazine, 95:5 PBS/MeOH, 25° C., in s-1 (unit assumed)
[3] = Stability with mercaptoethanol (25 mM) in phosphate buffered D2O, pD=7.4; assay type: physicochemical; conditions: 25 mM mercaptoethanol
Experimental: (§1) Phosphate buffered D2O (pD=7.4) was prepared by combining anhydrous sodium dihydrogen phosphate (NaH2PO4, 77.1 mg) and anhydrous disodium hydrogen phosphate (Na2HPO4, 204.4 mg) with 20 mL of D2O to make a 0.1 M solution. The pD was measured on a Fisher Scientific AB15 Plus pH meter and pH values were converted to pD by adding 0.4 units. The pD was adjusted to 7.4 with DCI (35 wt. % in D2O) and NaOD (40 wt. % in D2O) as necessary.
TCO 14 (3.1 mg, 18 μmol) in a solution of mercaptoethanol in phosphate buffered D2O (720 μL, 18 μmol, 25 mM, pD=7.4) was monitored by quantitative 1H NMR on a 600 MHz instrument to observe the decomposition of the trans-isomer over time. Methyl tert-butyl ether (2.1 μL, 18 μmol) was used as an internal standard. After 4 hours, 93% of 14 remained and 49% of 14 remained after 20 hours. (FIG. 6C). The results were plotted using Prism software (Version 8.00, GraphPad Software Inc). A waterfall plot of the ^1H NMR spectra is provided.
TCO 4a (2.3 mg, 18 μmol) in a solution of mercaptoethanol in phosphate buffered D2O (720 μL, 18 μmol, 25 mM, pD=7.4) was monitored by quantitative 1H NMR on a 600 MHz instrument to observe the decomposition of the trans-isomer over time. Methyl tert-butyl ether (2.1 μL, 18 μmol) was used as an internal standard. After 4 hours, 89% of 4a and 49% of 4a remained after 20 hours. (FIG. 6C). The results were plotted using Prism software (Version 8.00, GraphPad Software Inc). A waterfall plot of the ^1H NMR spectra is provided.

[4] = 4a with a PEGylated amide of 20 in 100% H2O, previously measured (Darko et al.); cited from earlier work
[5] = Stability in phosphate buffered D2O, pD=7.4 (33 mM) by quantitative 1H NMR; assay type: physicochemical
Experimental: as §1
(§2) A solution of 14 (4.3 mg, 25 μmol) in phosphate buffered D2O (750 μL, pD=7.4) was monitored by quantitative ^1H NMR on a 600 MHz instrument to observe the decomposition of the trans-isomer over time. Methyl tert-butyl ether (3.0 μL, 26 μmol) was used as an internal standard. After 1 day, 90% of 14 remained and after 5 days, 39% remained (FIG. 6B). The results were plotted using Prism software (Version 8.00, GraphPad Software Inc). A waterfall plot of the ^1H NMR spectra is provided.
as §2, with “4a (3.2” for “14 (4.3”, “85%” for “90%”, “4a” for “14”, “35%” for “39%”

[6] = Stability in methanol-d4 (35 mM) by quantitative 1H NMR; assay type: physicochemical; conditions: 35 mM in methanol-d4, after 7 days
Experimental: as §2, with “(4.5” for “(4.3”, “26” for “25”, “methanol-d4” for “phosphate buffered D2O”, “μL)” for “μL, pD=7.4)”, “(3.1” for “(3.0”, “After 1 day, 90% of 14 remained and after 5 days, 39% remained (FIG. 6B).” left out
as §2, with “4a (3.3” for “14 (4.3”, “26” for “25”, “methanol-d4” for “phosphate buffered D2O”, “μL)” for “μL, pD=7.4)”, “(3.1” for “(3.0”, “After 1 day, 90% of 14 remained and after 5 days, 39% remained (FIG. 6B).” left out

[7] = Stopped-flow kinetics of the Diels-Alder reaction with tetrazine 20; assay type: physicochemical; conditions: toward tetrazine 20, stopped flow, 25° C., 95:5 PBS:MeOH
Experimental: The kinetics for the reaction of a-TCO derivative 14 toward a 3,6-dipyridyl-s-tetrazinyl succinamic acid derivative 20 were measured by stopped flow kinetics at 25° C. in 95:5 PBS:MeOH (FIG. 4A).
Stopped-flow kinetics measurements were performed on a SX18MV-R stopped-flow spectrophotometer (Applied Photophysics Ltd.) with temperature control (25° C.).
The reaction between 5-ax-hydroxy-5-eq-(2-hydroxyethyl)-trans-cyclooctene 14 and 3,6-dipyridyl-s-tetrazine-mono-succinamic acid 20 was monitored by a SX18MV-R stopped-flow spectrophotometer (Applied Photophysics Ltd.) at 325 nm by measuring the exponential decay of tetrazine under pseudo-first order conditions. Solutions of 14 (0.98, 1.46, 1.95, and 2.63 mM in 9:1 PBS/MeOH) and tetrazine (0.1 mM in PBS) were mixed in the stopped-flow spectrophotometer in equal volumes resulting in final concentrations of 0.49 mM, 0.73 mM, 0.97 mM, and 1.31 mM of 14 and 0.05 mM of tetrazine in 95:5 PBS/MeOH. Three independent samples were prepared for each TCO concentration and measurements were taken in duplicate every 0.1 ms for 0.1 sat 25° C. The observed rates kobs for each run were determined by nonlinear regression analysis of the data points using Prism software (Version 8.00, GraphPad Software Inc). The average kobs values were plotted against the concentrations of 14 to obtain the bimolecular rate constant k2 from the slope of the plot.
The observed rates (kobs) of 5-ax-hydroxy-5-eq-(2-hydroxyethyl)-trans-cyclooctene 14 (10-30 equivalents) and 3,6-dipyridyl-s-tetrazine-mono-succinamic acid 20 were measured using stopped-flow kinetics. The final concentrations of 14 after injection were (A) 0.49 mM, (B) 0.73 mM, (C) 0.97 mM, and (D) 1.31 mM and the concentration of tetrazine was 0.05 mM in 95:5 PBS/MeOH at 25° C. Duplicate measurements were obtained for three independent samples for each concentration of 14.
The reaction between 5-ax-hydroxy-trans-cyclooctene 4a and 3,6-dipyridyl-s-tetrazine-mono-succinamic acid 20 was monitored by a SX18MV-R stopped-flow spectrophotometer (Applied Photophysics Ltd.) at 325 nm by measuring the exponential decay of tetrazine under pseudo-first order conditions. Solutions of 4a (100, 200, 300, and 400 μM in 9:1 PBS/MeOH) and tetrazine (20 μM in PBS) were mixed in the stopped-flow […] 95:5 PBS/MeOH. Three independent samples were prepared for each TCO concentration and measurements were taken in duplicate every 0.1 ms for 0.2 s at 25° C. The observed rates kobs for each run were determined by nonlinear regression analysis of the data points using Prism software (Version 8.00, GraphPad Software Inc). The average kobs values were plotted against the concentrations of 4a to obtain the bimolecular rate constant k2 from the slope of the plot.
The observed rates (kobs) of 5-ax-hydroxy-trans-cyclooctene 4a (5-20 equivalents) and 3,6-dipyridyl-s-tetrazine-mono-succinamic acid 20 were measured using stopped-flow kinetics. […]

[8] = toward 20; no kinetic example for 4b in the patent, FIG. 4A footnotes cite earlier measurements in 100% H2O; cited from earlier work

C#CCC1(O)CC/C=C/CCC1 (stereo not drawn) [Compound 5, 5-ax-Hydroxy-5-eq-propargyl-trans-cyclooctene]
TCO concentration at which sulfenic acids are modified [1]: ≥ 500 µM

OC1CC/C=C/CCC1 (stereo not drawn) [Compound 4a, 5-ax-Hydroxy-trans-cyclooctene]
Kobs ([2]; Table 2 head A (0.49 mM)): 3.407 | Kobs ([2]; Table 2 head B (0.73 mM)): 6.966 | Kobs ([2]; Table 2 head C (0.97 mM)): 10.09 | Kobs ([2]; Table 2 head D (1.31 mM)): 13.86 | TCO remaining ([3]; phosphate buffered D2O pD 7.4, 4 hours): 89% | TCO remaining ([3]; phosphate buffered D2O pD 7.4, 20 hours): 49% | k2 [4]: 80,200 | TCO remaining ([5]; phosphate buffered D2O pD 7.4, 1 day (24 h), room temperature): 85% | TCO remaining ([5]; phosphate buffered D2O pD 7.4, 5 days): 35% | decomposition of the trans-isomer [6]: no observable decomposition | second-order rate constant k2 [7]: 70,000±1800 M^−1s^−1

OC1CC/C=C/CCC1 (stereo not drawn) [Compound 4b, equatorial-5-hydroxy-trans-cyclooctene]
second-order rate constant k2 (equatorial isomer, comparison value) [8]: 22,400±40 M^−1s^−1
